# Data: paper PMC6706418, “Systemically Administered Plant Recombinant Holo-Intrinsic Factor Targets the Liver and is not Affected by Endogenous B12 levels” (Scientific Reports, 2019)
# pKd: −log10 of the molar value.
# Target: T1, human gastric Intrinsic factor (IF; hrIF) (Homo sapiens, UniProt P27352)
# T1 construct: gene CBLIF; recombinant apo-IF expressed in Arabidopsis thaliana (Xeragenx LLC); secreted glycoprotein ~50 kDa with plant glycosylation
# Experiment: radiometric chase assay with […]-B12
# Format: binding
# Settings: competition against 57Co-B12; B12-desferrioxamine conjugate chelated to cold 91Zr (pH 7-7.5)
# T1 sequence (P27352 19-417): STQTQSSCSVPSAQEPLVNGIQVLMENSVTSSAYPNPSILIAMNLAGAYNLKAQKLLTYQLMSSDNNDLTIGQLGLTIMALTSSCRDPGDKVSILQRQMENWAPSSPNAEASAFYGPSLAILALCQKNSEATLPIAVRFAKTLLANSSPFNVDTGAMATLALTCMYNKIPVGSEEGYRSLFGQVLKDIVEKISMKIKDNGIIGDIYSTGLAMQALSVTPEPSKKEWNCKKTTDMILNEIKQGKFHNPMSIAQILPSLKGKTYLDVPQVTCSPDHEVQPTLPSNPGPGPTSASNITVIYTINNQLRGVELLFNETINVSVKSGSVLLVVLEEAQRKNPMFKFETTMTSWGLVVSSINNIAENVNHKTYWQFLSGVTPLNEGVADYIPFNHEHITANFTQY
substance,measurement,value
[^91Zr]-B12,pKd,8.80
